The supplement of paper PMC10307832

Key:
Assay in all cases: relative viability (nuclei count vs DMSO), 5 days (fraction); higher = more cells survive
[1] = compound: COc1cc2nccc(Oc3ccc(NC(=O)C4(C(=O)Nc5ccc(F)cc5)CC4)cc3)c2cc1OC [Cabozantinib] + CC(=O)Nc1cccc(-n2c(=O)n(C3CC3)c(=O)c3c(Nc4ccc(I)cc4F)n(C)c(=O)c(C)c32)c1 [Trametinib] (partner 0.02 µM)
Procedure, shortened: (§1)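 Lung cancer cell lines were pin-tool dosed in 1536-well plates on the day after seeding, with either a lone drug or a fixed anchor-drug dose plus five library-drug doses (not always all listed) in √10 steps. Nuclei were counted on 4× images after 5 days. Relative viability is the ratio of treated-well to vehicle-well nuclei counts, with each value a median of duplicate plates.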

[2] = compound: COc1cc2nccc(Oc3ccc(NC(=O)C4(C(=O)Nc5ccc(F)cc5)CC4)cc3)c2cc1OC [Cabozantinib] + O=C(c1cc(Cc2n[nH]c(=O)c3ccccc23)ccc1F)N1CCN(C(=O)C2CC2)CC1 [Olaparib] (partner 8 µM)
Procedure, shortened: as §1

[3] = compound: C1=CC(=CC=C1NC(=S)NNC2=C(C=C(C=C2[N+](=O)[O-])C(F)(F)F)[N+](=O)[O-])F [Kobe2602] + Cc1nc(NC(=O)N2CCC[C@H]2C(N)=O)sc1-c1ccnc(C(C)(C)C(F)(F)F)c1 [Alpelisib] (partner 2 µM)
Procedure, shortened: as §1

[4] = compound: O[C@@H](COc1cccc2ncccc12)CN1CCN([C@@H]2c3ccccc3[C@@H]3[C@H](c4ccccc42)C3(F)F)CC1 [Zosuquidar] + CS(=O)(=O)CCNCc1ccc(-c2ccc3ncnc(Nc4ccc(OCc5cccc(F)c5)c(Cl)c4)c3c2)o1 [Lapatinib] (partner 2 µM)
Procedure, shortened: as §1

| Cell Line | relative viability ([1]; first compound 0.02 µM) | relative viability ([1]; first compound 0.06325 µM) | relative viability ([1]; first compound 0.2 µM) | relative viability ([1]; first compound 0.6325 µM) | relative viability ([1]; first compound 2 µM) | relative viability ([2]; first compound 0.02 µM) | relative viability ([2]; first compound 0.06325 µM) | relative viability ([2]; first compound 0.2 µM) | relative viability ([2]; first compound 0.6325 µM) | relative viability ([2]; first compound 2 µM) | relative viability ([3]; first compound 0.2 µM) | relative viability ([3]; first compound 0.6325 µM) | relative viability ([3]; first compound 6.325 µM) | relative viability ([3]; first compound 20 µM) | relative viability ([4]; first compound 0.01 µM) | relative viability ([4]; first compound 0.03162 µM) | relative viability ([4]; first compound 0.1 µM) | relative viability ([4]; first compound 0.3162 µM) | relative viability ([4]; first compound 1 µM) | relative viability ([3]; first compound 2 µM) |
| --- | --- | --- | --- | --- | --- | --- | --- | --- | --- | --- | --- | --- | --- | --- | --- | --- | --- | --- | --- | --- |
| NCI-H1666 | 0.845 | 0.83 | 0.798 | 0.883 | 0.878 | 0.821 | 0.802 | 0.719 | 0.715 | 0.732 | 0.97 | 0.925 | 0.893 | 0.768 | 0.534 | 0.713 | 0.875 | 0.754 | 0.579 | – |
| NCI-H1734 | 0.738 | 0.665 | 0.716 | 0.623 | 0.597 | 0.67 | 0.646 | 0.711 | 0.635 | 0.584 | 0.71 | 0.816 | 0.726 | 0.784 | 1.03 | 1.02 | 1.1 | 1.07 | 1.13 | 0.665 |
| NCI-H1755 | 0.816 | 0.765 | 0.795 | 0.73 | 0.718 | 0.868 | 0.898 | 0.872 | 0.785 | 0.79 | 0.906 | 0.874 | 0.866 | 0.956 | 1 | 0.946 | 0.951 | 1.04 | 1.08 | 0.919 |
| NCI-H1792 | – | 0.483 | 0.455 | 0.417 | 0.32 | – | 0.56 | 0.419 | 0.317 | 0.373 | 0.633 | 0.749 | 0.615 | 0.679 | 0.9 | 0.893 | 0.837 | 0.839 | 0.795 | 0.696 |
| NCI-H1793 | 0.489 | 0.428 | – | 0.432 | 0.341 | 1.01 | 0.899 | – | 0.756 | 0.599 | 0.629 | 0.615 | 0.684 | 0.847 | 0.916 | 0.625 | – | 0.835 | 1.11 | 0.589 |
| NCI-H1915 | 0.331 | 0.345 | 0.335 | 0.304 | 0.28 | 0.296 | 0.28 | 0.283 | 0.239 | 0.255 | 1.1 | 1.09 | 1.06 | 1.05 | 0.988 | 0.996 | 0.953 | 1.05 | 1.01 | 1.02 |
| NCI-H1944 | 0.441 | 0.401 | 0.386 | 0.416 | 0.413 | 0.426 | 0.413 | 0.404 | 0.401 | 0.52 | 0.803 | 0.884 | 0.805 | 0.944 | 0.822 | 0.797 | 0.585 | 0.925 | 0.794 | 0.885 |
| NCI-H1975 | 0.331 | 0.389 | 0.638 | 0.417 | 0.217 | 0.881 | 0.916 | 0.892 | 0.786 | 0.679 | 0.641 | 0.648 | 0.564 | 0.524 | 0.796 | 0.7 | 0.945 | 0.991 | 0.858 | 0.559 |
